Assay results as given in ChEMBL document CHEMBL4390652, “Design, biological evaluation and X-ray crystallography of nanomolar multifunctional ligands targeting simultaneously acetylcholinesterase and glycogen synthase kinase-3” (Eur J Med Chem, 2019).

Tests used:
Cholinesterase = Cholinesterase (Homo sapiens, UniProt P06276); test: Inhibition of human serum BChE using BTCh as substrate preincubated for 20 mins followed by substrate addition and measured for 3 mins by Ellman's method
HaCaT = test: Cytotoxicity against human HaCaT cells assessed as growth inhibition incubated for 48 hrs by Hoechst 33342 staining based assay; assay type: cell-based
[1] = biological target: Activin receptor type-1-like (Homo sapiens) (UniProt P37023); test: Binding affinity to wild-type human ACVRL1 (L164 to Q503 residues) expressed in bacterial expression system assessed as residual binding level at 10 uM by Kinomescan method relative to control
[2] = biological target: Casein kinase I isoform gamma-1 (Homo sapiens) (UniProt Q9HCP0); test: Binding affinity to wild-type human partial length CSNK1G1 (T15 to S353 residues) expressed in bacterial expression system assessed as residual binding level at 10 uM by Kinomescan method relative to control
[3] = biological target: Dual specificity tyrosine-phosphorylation-regulated kinase 1A (Homo sapiens) (UniProt Q13627); test: Binding affinity to wild-type human partial length DYRK1A (H129 to S509 residues) expressed in mammalian expression system assessed as residual binding level at 10 uM by Kinomescan method relative to control
[4] = test system: Epidermal growth factor receptor (Homo sapiens), P00533 [G719S]; test: Binding affinity to human partial length EGFR G719S mutant (R669 to V1011 residues) expressed in bacterial expression system assessed as residual binding level at 10 uM by Kinomescan method relative to control
[5] = biological target: Tyrosine-protein kinase FRK (Homo sapiens) (UniProt P42685); test: Binding affinity to wild-type human partial length FRK (A215 to F503 residues) expressed in bacterial expression system assessed as residual binding level at 10 uM by Kinomescan method relative to control
[6] = biological target: G protein-coupled receptor kinase 4 (Homo sapiens) (UniProt P32298); test: Binding affinity to wild-type human full length GRK4 (M1 to C578 residues) expressed in bacterial expression system assessed as residual binding level at 10 uM by Kinomescan method relative to control
[7] = biological target: Serine/threonine-protein kinase haspin (Homo sapiens) (UniProt Q8TF76); test: Binding affinity to wild-type human partial length HASPIN (I452 to K798 residues) expressed in mammalian expression system assessed as residual binding level at 10 uM by Kinomescan method relative to control
[8] = biological target: Mitogen-activated protein kinase kinase kinase kinase 1 (Homo sapiens) (UniProt Q92918); test: Binding affinity to wild-type human full length HPK1 (M1 to R799 residues) expressed in bacterial expression system assessed as residual binding level at 10 uM by Kinomescan method relative to control
Chain of Mitogen-activated protein kinase kinase kinase kinase 1 (Homo sapiens) (Q92918 whole entry, looked up, the tested form may be a part): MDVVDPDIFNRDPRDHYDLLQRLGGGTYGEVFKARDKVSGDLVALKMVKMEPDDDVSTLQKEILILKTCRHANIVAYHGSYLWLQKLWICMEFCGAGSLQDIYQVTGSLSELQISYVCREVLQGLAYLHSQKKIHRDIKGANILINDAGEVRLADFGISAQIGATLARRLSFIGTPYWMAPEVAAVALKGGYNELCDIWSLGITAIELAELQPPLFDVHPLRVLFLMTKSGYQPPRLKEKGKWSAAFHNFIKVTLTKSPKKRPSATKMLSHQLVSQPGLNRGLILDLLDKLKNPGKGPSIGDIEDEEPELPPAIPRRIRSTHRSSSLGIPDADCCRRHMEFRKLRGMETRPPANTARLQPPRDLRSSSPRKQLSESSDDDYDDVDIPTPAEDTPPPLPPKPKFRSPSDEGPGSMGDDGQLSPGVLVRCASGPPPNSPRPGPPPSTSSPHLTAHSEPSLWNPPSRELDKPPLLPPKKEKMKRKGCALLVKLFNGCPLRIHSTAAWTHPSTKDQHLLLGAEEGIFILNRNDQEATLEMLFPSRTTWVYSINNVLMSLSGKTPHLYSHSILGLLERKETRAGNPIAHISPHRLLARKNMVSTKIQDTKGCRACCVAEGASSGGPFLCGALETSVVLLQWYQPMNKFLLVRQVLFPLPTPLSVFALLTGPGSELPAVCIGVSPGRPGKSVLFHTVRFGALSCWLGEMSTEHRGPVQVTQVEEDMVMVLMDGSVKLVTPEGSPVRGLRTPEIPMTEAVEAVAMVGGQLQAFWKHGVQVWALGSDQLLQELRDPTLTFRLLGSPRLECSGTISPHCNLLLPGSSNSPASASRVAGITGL

[9] = biological target: Interleukin-1 receptor-associated kinase 1 (Homo sapiens) (UniProt P51617); test: Binding affinity to wild-type human partial length IRAK1 (R194 to S712 residues) expressed in mammalian expression system assessed as residual binding level at 10 uM by Kinomescan method relative to control
[10] = test system: Mast/stem cell growth factor receptor Kit (Homo sapiens), P10721 [A829P]; test: Binding affinity to human partial length KIT A829P mutant (I571 to D952 residues) expressed in mammalian expression system assessed as residual binding level at 10 uM by Kinomescan method relative to control
Chain of Mast/stem cell growth factor receptor Kit (Homo sapiens), P10721 [A829P] (P10721 whole entry A829P, the tested form may be a part): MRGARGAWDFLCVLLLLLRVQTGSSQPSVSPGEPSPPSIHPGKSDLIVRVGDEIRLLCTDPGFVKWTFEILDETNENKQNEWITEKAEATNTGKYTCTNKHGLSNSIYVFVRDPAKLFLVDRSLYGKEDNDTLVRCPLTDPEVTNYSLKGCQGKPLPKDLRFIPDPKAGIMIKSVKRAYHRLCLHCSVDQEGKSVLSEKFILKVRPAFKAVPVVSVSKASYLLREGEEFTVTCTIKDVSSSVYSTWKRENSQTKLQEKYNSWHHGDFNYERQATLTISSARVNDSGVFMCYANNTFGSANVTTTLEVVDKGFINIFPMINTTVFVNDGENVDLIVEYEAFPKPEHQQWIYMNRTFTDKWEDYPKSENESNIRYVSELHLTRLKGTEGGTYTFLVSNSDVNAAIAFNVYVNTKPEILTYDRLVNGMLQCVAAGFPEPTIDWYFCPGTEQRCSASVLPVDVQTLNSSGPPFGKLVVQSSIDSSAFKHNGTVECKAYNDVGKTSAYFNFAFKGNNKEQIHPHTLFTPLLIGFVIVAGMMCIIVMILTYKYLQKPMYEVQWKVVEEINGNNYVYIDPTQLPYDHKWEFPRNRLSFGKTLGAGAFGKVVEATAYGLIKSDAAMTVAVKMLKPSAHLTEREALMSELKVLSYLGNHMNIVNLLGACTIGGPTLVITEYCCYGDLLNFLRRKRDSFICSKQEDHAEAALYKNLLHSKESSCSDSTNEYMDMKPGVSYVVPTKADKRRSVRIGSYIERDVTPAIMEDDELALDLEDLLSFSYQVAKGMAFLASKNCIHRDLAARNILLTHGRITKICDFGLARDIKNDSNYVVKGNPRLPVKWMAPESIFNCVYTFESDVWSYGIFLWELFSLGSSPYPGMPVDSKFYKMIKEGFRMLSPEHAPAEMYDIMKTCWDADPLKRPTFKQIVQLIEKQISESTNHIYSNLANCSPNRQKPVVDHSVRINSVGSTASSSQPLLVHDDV

[11] = test system: Mast/stem cell growth factor receptor Kit (Homo sapiens), P10721 [UNDEFINED MUTATION]; test: Binding affinity to human partial length KIT V559D/V654 double mutant (Y545 to D952 residues) expressed in bacterial expression system assessed as residual binding level at 10 uM by Kinomescan method relative to control
Chain of Mast/stem cell growth factor receptor Kit (Homo sapiens), P10721 [UNDEFINED MUTATION] (P10721 whole entry, looked up, stated change not applied, the tested form may be a part): as the sequence (P10721 whole entry A829P, the tested form may be a part) above, with P829A counted along it

[12] = biological target: Hepatocyte growth factor receptor (Homo sapiens) (UniProt P08581); test: Binding affinity to wild-type human partial length MET (D1010 to S1367 residues) expressed in bacterial expression system assessed as residual binding level at 10 uM by Kinomescan method relative to control
[13] = biological target: Serine/threonine-protein kinase Nek2 (Homo sapiens) (UniProt P51955); test: Binding affinity to wild-type human partial length NEK2 (M1 to K309 residues) expressed in bacterial expression system assessed as residual binding level at 10 uM by Kinomescan method relative to control
Chain of Serine/threonine-protein kinase Nek2 (Homo sapiens) (P51955 whole entry, the tested form may be a part): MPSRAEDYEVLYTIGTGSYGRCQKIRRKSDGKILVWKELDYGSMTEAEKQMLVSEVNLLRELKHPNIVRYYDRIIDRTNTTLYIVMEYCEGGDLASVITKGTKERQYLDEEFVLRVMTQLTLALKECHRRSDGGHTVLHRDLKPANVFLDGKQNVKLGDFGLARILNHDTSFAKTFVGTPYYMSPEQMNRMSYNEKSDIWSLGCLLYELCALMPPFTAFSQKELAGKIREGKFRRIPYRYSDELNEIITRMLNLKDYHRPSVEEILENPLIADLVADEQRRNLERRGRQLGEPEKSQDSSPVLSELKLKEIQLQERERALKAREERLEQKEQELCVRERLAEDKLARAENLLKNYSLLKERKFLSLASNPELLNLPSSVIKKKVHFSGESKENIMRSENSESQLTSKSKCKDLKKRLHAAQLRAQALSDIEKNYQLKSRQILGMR

[14] = biological target: Platelet-derived growth factor receptor alpha (Homo sapiens) (UniProt P16234); test: Binding affinity to wild-type human partial length PDGFRA (V575 to D1002 residues) expressed in mammalian expression system assessed as residual binding level at 10 uM by Kinomescan method relative to control
[15] = biological target: Serine/threonine-protein kinase PRP4 homolog (Homo sapiens) (UniProt Q13523); test: Binding affinity to wild-type human partial length PRP4 (D657 to I1007 residues) expressed in bacterial expression system assessed as residual binding level at 10 uM by Kinomescan method relative to control
Chain of Serine/threonine-protein kinase PRP4 homolog (Homo sapiens) (Q13523 whole entry, the tested form may be a part): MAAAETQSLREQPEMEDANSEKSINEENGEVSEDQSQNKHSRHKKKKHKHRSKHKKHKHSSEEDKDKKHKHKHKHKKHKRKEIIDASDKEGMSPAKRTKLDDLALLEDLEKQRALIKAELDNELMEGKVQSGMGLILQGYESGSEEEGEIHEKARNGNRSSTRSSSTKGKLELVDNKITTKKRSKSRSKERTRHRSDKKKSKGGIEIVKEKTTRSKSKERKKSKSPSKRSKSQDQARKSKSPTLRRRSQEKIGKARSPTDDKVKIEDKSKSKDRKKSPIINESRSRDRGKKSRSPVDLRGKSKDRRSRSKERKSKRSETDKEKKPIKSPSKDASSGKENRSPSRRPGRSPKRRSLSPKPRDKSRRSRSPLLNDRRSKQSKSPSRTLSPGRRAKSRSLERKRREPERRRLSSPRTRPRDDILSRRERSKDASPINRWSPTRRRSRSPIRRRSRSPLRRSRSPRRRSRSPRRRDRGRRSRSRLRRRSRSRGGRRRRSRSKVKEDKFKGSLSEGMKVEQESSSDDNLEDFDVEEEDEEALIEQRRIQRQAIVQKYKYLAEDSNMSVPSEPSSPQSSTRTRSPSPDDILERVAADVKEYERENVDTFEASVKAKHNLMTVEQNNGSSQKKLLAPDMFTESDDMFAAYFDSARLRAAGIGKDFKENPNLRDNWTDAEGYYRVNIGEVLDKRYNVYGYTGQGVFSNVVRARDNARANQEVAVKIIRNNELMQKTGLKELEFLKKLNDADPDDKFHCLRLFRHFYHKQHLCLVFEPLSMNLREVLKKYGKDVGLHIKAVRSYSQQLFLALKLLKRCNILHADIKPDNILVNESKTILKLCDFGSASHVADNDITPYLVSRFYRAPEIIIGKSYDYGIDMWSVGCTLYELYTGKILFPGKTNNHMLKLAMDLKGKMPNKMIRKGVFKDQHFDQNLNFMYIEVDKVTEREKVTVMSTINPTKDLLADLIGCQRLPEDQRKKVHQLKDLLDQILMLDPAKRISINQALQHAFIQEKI

[16] = biological target: Ribosomal protein S6 kinase alpha-3 (Homo sapiens) (UniProt P51812); test: Binding affinity to wild-type human partial length C-terminal RSK2 kinase domain 2 (V402 to S715 residues) expressed in mammalian expression system assessed as residual binding level at 10 uM by Kinomescan method relative to control
[17] = biological target: Activated CDC42 kinase 1 (Homo sapiens) (UniProt Q07912); test: Binding affinity to wild-type human partial length TNK2 (S159 to D474 residues) expressed in bacterial expression system assessed as residual binding level at 10 uM by Kinomescan method relative to control
Chain of Activated CDC42 kinase 1 (Homo sapiens) (Q07912 whole entry, looked up, the tested form may be a part): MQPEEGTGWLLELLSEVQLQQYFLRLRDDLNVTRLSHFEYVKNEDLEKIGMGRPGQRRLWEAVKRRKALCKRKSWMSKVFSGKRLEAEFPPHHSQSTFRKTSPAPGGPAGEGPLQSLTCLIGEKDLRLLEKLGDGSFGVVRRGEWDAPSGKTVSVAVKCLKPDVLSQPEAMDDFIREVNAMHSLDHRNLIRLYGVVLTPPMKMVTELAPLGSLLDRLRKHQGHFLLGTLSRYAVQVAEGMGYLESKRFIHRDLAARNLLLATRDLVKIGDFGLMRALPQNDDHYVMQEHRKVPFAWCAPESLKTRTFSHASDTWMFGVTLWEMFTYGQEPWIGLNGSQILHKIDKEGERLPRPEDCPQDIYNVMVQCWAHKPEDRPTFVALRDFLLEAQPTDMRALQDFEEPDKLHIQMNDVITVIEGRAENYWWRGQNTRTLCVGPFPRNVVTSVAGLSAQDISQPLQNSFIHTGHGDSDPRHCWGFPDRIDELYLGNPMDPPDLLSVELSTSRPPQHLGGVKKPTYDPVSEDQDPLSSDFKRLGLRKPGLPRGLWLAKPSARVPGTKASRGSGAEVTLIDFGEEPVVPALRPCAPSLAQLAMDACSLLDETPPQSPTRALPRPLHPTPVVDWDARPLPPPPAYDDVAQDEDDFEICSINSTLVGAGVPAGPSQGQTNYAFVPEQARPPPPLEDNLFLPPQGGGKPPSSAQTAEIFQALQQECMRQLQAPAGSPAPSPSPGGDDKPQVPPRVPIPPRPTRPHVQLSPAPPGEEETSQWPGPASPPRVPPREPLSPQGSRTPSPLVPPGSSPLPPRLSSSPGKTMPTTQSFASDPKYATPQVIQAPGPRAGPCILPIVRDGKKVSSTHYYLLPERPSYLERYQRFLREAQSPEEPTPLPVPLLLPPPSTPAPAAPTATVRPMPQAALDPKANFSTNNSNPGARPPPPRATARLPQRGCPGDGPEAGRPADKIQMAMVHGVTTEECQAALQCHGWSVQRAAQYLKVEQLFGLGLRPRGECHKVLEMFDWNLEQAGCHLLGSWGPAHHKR

[18] = biological target: Tyrosine-protein kinase ZAP-70 (Homo sapiens) (UniProt P43403); test: Binding affinity to wild-type human partial length ZAP70 (D20 to G299 residues) expressed in mammalian expression system assessed as residual binding level at 10 uM by Kinomescan method relative to control
MDR1 = test: in vitro; details: dog, MDCK-MDR1
Description: Apparent permeability across basolateral to apical side in MDCK2-MDR1 cells by HPLC analysis

Chain of Cholinesterase (P06276 whole entry): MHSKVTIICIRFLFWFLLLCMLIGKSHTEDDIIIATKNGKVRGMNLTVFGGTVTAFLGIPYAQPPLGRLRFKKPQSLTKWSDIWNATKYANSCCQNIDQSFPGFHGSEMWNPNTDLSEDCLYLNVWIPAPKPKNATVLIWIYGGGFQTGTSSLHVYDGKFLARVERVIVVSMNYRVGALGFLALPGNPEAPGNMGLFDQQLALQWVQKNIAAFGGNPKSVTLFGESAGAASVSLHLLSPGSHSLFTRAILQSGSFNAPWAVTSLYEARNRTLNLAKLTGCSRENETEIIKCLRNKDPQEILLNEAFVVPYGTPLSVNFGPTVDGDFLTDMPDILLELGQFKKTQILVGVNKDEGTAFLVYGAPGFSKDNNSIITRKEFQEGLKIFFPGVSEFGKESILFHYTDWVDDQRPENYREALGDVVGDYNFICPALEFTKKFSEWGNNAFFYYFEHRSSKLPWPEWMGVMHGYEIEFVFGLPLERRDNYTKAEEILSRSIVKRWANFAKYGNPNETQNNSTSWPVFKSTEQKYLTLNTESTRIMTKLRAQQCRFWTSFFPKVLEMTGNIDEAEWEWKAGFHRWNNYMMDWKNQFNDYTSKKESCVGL

## O=C(Nc1cc(-c2cn(CCNc3c4c(nc5ccccc35)CCCC4)nn2)ccn1)Nc1cccc2c1C1CCCCN1C2=O (racemic)
Cholinesterase
  IC50: 301 nM
HaCaT
  IC50: 5000 nM
[1]
  Activity: 100%
[2]
  Activity: 63%
[3]
  Activity: 2.4%
[4]
  Activity: 94%
[5]
  Activity: 99%
[6]
  Activity: 7%
[7]
  Activity: 3.9%
[8]
  Activity: 12%
[9]
  Activity: 8.7%
[10]
  Activity: 3.9%
[11]
  Activity: 38%
[12]
  Activity: 57%
[13]
  Activity: 94%
[14]
  Activity: 22%
[15]
  Activity: 15%
[16]
  Activity: 100%
[17]
  Activity: 100%
[18]
  Activity: 60%
MDR1
  Papp B→A: 16.8 ×10⁻⁶ cm/s
